We go through twelve molecules from patent publication US20160158317A1, “Antimicrobial Peptide Variants and Polynucleotides Encoding Same” (Adenium Biotech A/S, priority 2010, published 2016).

Molecules are shown by their SMILES. Where a SMILES comes first, the peptide text is derived from it. Bridges are numbered along the chain shown (N, C = ends).

This data set can be described thus: Determination of the protein binding (90% serum, 30 kDa filter, HPLC). Type of data set: in vitro ADME. The settings on record: serum. The protocol: Protein binding assays were performed as follows. The purified peptides were mixed with 90% serum and centrifuged through a 30 kDa filter. The ultra-filtrate and the non filtrated serum samples were quantified by HPLC measurements and the protein binding was subsequently calculated.
In the case of `CC(C)[C@@H]1NC(=O)[C@@H]2CSSC[C@H](NC(=O)[C@H](C(C)C)NC(=O)[C@H](CCCNC(=N)N)NC(=O)[C@H](C(C)C)NC(=O)[C@H](Cc3ccc(O)cc3)NC(=O)[C@H](CC(N)=O)NC(=O)[C@H](CCCNC(=N)N)NC(=O)[C@H](Cc3ccc(O)cc3)NC1=O)C(=O)N[C@@H](Cc1c[nH]cn1)C(=O)N[C@@H](CCCNC(=N)N)C(=O)N[C@@H](CCCNC(=N)N)C(=O)N[C@H](C(=O)N[C@@H](CC(N)=O)C(=O)O)CSSC[C@H](NC(=O)[C@H](Cc1ccccc1)NC(=O)CN)C(=O)N[C@@H](Cc1c[nH]c3ccccc13)C(=O)N[C@@H](CC(N)=O)C(=O)N[C@@H](C(C)C)C(=O)N2` [compound 229] (H-GFCWNVCVYRNYVRVCHRRCN-OH; disulfide 3-20, 7-16 (inferred); N-terminus and C-terminus assumed), the fraction unbound amounted to 0.09.
In turn, `CC(C)[C@@H]1NC(=O)CNC(=O)[C@H](CC(N)=O)NC(=O)[C@H](CCCNC(=N)N)NC(=O)[C@H](Cc2ccc(O)cc2)NC(=O)[C@H](C(C)C)NC(=O)[C@@H]2CSSC[C@H](NC(=O)[C@H](C(C)C)NC(=O)[C@H](CCCNC(=N)N)NC1=O)C(=O)N[C@@H](Cc1c[nH]cn1)C(=O)N[C@@H](CCCNC(=N)N)C(=O)N[C@@H](CCCNC(=N)N)C(=O)N[C@H](C(=O)N[C@@H](CC(N)=O)C(=O)O)CSSC[C@H](NC(=O)[C@H](Cc1ccccc1)NC(=O)[C@@H](N)Cc1c[nH]cn1)C(=O)N[C@@H](Cc1c[nH]c3ccccc13)C(=O)N[C@@H](CC(N)=O)C(=O)N[C@@H](C(C)C)C(=O)N2` [compound 98] (H-HFCWNVCVYRNGVRVCHRRCN-OH; disulfide 3-20, 7-16 (inferred); N-terminus and C-terminus assumed) had a fraction unbound of 0.23.
The molecule `CC(C)[C@@H]1NC(=O)CNC(=O)[C@H](CC(N)=O)NC(=O)[C@H](CCCNC(=N)N)NC(=O)[C@H](Cc2ccc(O)cc2)NC(=O)[C@H](C(C)C)NC(=O)[C@@H]2CSSC[C@H](NC(=O)[C@H](C(C)C)NC(=O)[C@H](CCCNC(=N)N)NC1=O)C(=O)N[C@@H](Cc1c[nH]cn1)C(=O)N[C@@H](CCCNC(=N)N)C(=O)N[C@@H](CCCNC(=N)N)C(=O)N[C@H](C(=O)NCC(=O)O)CSSC[C@H](NC(=O)[C@H](Cc1ccccc1)NC(=O)CN)C(=O)N[C@@H](Cc1c[nH]c3ccccc13)C(=O)N[C@@H](CC(N)=O)C(=O)N[C@@H](C(C)C)C(=O)N2` [compound 281] (H-GFCWNVCVYRNGVRVCHRRCG-OH; disulfide 3-20, 7-16 (inferred); N-terminus and C-terminus assumed) showed a fraction unbound of 0.34.
Under `CC(C)[C@@H]1NC(=O)CNC(=O)[C@H](CC(N)=O)NC(=O)[C@H](CCCNC(=N)N)NC(=O)[C@H](Cc2ccc(O)cc2)NC(=O)[C@H](C(C)C)NC(=O)[C@@H]2CSSC[C@H](NC(=O)[C@H](CC(N)=O)NC(=O)[C@H](CCCNC(=N)N)NC1=O)C(=O)N[C@@H](Cc1ccc(O)cc1)C(=O)N[C@@H](CCCNC(=N)N)C(=O)N[C@@H](CCCNC(=N)N)C(=O)N[C@H](C(=O)N[C@@H](CC(N)=O)C(=O)O)CSSC[C@H](NC(=O)[C@H](Cc1ccccc1)NC(=O)CN)C(=O)N[C@@H](Cc1c[nH]c3ccccc13)C(=O)N[C@@H](Cc1ccc(O)cc1)C(=O)N[C@@H](C(C)C)C(=O)N2` [compound 41] (H-GFCWYVCVYRNGVRNCYRRCN-OH; disulfide 3-20, 7-16 (inferred); N-terminus and C-terminus assumed) stands 0.03; under `CC(C)[C@@H]1NC(=O)CNC(=O)[C@H](CC(N)=O)NC(=O)[C@H](CCCNC(=N)N)NC(=O)[C@H](CCCNC(=N)N)NC(=O)[C@H](C(C)C)NC(=O)[C@@H]2CSSC[C@H](NC(=O)[C@H](C(C)C)NC(=O)[C@H](CCCNC(=N)N)NC1=O)C(=O)N[C@@H](Cc1ccc(O)cc1)C(=O)N[C@@H](CCCNC(=N)N)C(=O)N[C@@H](CCCNC(=N)N)C(=O)N[C@H](C(=O)N[C@@H](CC(N)=O)C(=O)O)CSSC[C@H](NC(=O)[C@H](Cc1ccccc1)NC(=O)CN)C(=O)NCC(=O)N[C@@H](CCCNC(=N)N)C(=O)N[C@@H](C(C)C)C(=O)N2` [compound 172] (H-GFCGRVCVRRNGVRVCYRRCN-OH; disulfide 3-20, 7-16 (inferred); N-terminus and C-terminus assumed), 0.12; under `CC(C)[C@@H]1NC(=O)[C@@H]2CSSC[C@H](NC(=O)[C@H](CO)NC(=O)[C@H](CCCNC(=N)N)NC(=O)[C@H](C)NC(=O)CNC(=O)[C@H](CC(N)=O)NC(=O)[C@H](CCCNC(=N)N)NC(=O)[C@H](Cc3ccc(O)cc3)NC1=O)C(=O)N[C@@H](Cc1ccc(O)cc1)C(=O)N[C@@H](CCCNC(=N)N)C(=O)N[C@@H](CCCNC(=N)N)C(=O)N[C@H](C(=O)N[C@@H](CC(N)=O)C(=O)O)CSSC[C@H](NC(=O)[C@H](Cc1ccccc1)NC(=O)CN)C(=O)N[C@@H](Cc1c[nH]c3ccccc13)C(=O)N[C@@H](Cc1c[nH]cn1)C(=O)N[C@@H](C(C)C)C(=O)N2` [compound 213] (H-GFCWHVCVYRNGARSCYRRCN-OH; disulfide 3-20, 7-16 (inferred); N-terminus and C-terminus assumed), 0.05.
Turning to `CC(C)[C@@H]1NC(=O)CNC(=O)[C@H](CC(N)=O)NC(=O)[C@H](CCCNC(=N)N)NC(=O)[C@H](Cc2ccc(O)cc2)NC(=O)[C@H](C(C)C)NC(=O)[C@@H]2CSSC[C@H](NC(=O)[C@H](CCCNC(=N)N)NC(=O)[C@H](CCCNC(=N)N)NC1=O)C(=O)N[C@@H](Cc1ccc(O)cc1)C(=O)N[C@@H](CCCNC(=N)N)C(=O)N[C@@H](CCCNC(=N)N)C(=O)N[C@H](C(=O)N[C@@H](CC(N)=O)C(=O)O)CSSC[C@H](NC(=O)[C@H](Cc1ccccc1)NC(=O)CN)C(=O)NCC(=O)N[C@@H](CCCNC(=N)N)C(=O)N[C@@H](C(C)C)C(=O)N2` [compound 170] (H-GFCGRVCVYRNGVRRCYRRCN-OH; disulfide 3-20, 7-16 (inferred); N-terminus and C-terminus assumed), the fraction unbound is 0.13.
With `CC(C)[C@@H]1NC(=O)CNC(=O)[C@H](CC(N)=O)NC(=O)[C@H](CCCNC(=N)N)NC(=O)[C@H](Cc2ccc(O)cc2)NC(=O)[C@H](C(C)C)NC(=O)[C@@H]2CSSC[C@H](NC(=O)[C@H](C(C)C)NC(=O)[C@H](CCCNC(=N)N)NC1=O)C(=O)N[C@@H](Cc1ccc(O)cc1)C(=O)N[C@@H](CCCNC(=N)N)C(=O)N[C@@H](CCCNC(=N)N)C(=O)N[C@H](C(=O)N[C@@H](CO)C(=O)O)CSSC[C@H](NC(=O)[C@H](Cc1ccccc1)NC(=O)CN)C(=O)N[C@@H](Cc1c[nH]c3ccccc13)C(=O)N[C@@H](Cc1ccc(O)cc1)C(=O)N[C@@H](C(C)C)C(=O)N2` [compound 53] (H-GFCWYVCVYRNGVRVCYRRCS-OH; disulfide 3-20, 7-16 (inferred); N-terminus and C-terminus assumed) the figure was 0.01.
On to `CC(C)[C@@H]1NC(=O)CNC(=O)[C@H](CC(N)=O)NC(=O)[C@H](CCCNC(=N)N)NC(=O)[C@H](Cc2ccc(O)cc2)NC(=O)[C@H](C(C)C)NC(=O)[C@@H]2CSSC[C@H](NC(=O)[C@H](C(C)C)NC(=O)[C@H](CCCNC(=N)N)NC1=O)C(=O)N[C@@H](Cc1c[nH]cn1)C(=O)N[C@@H](CCCNC(=N)N)C(=O)N[C@@H](CCCNC(=N)N)C(=O)N[C@H](C(=O)N[C@@H](CC(N)=O)C(=O)O)CSSC[C@H](NC(=O)[C@H](Cc1ccccc1)NC(=O)CN)C(=O)N[C@@H](Cc1c[nH]c3ccccc13)C(=O)N[C@@H](CC(N)=O)C(=O)N[C@@H](C(C)C)C(=O)N2` [compound 70] (H-GFCWNVCVYRNGVRVCHRRCN-OH; disulfide 3-20, 7-16 (inferred); N-terminus and C-terminus assumed), for which the fraction unbound was 0.21.
In turn, `CC(C)[C@@H]1NC(=O)CNC(=O)[C@H](CC(N)=O)NC(=O)[C@H](CCCNC(=N)N)NC(=O)[C@H](CCCNC(=N)N)NC(=O)[C@H](C(C)C)NC(=O)[C@@H]2CSSC[C@H](NC(=O)[C@H](C(C)C)NC(=O)[C@H](CCCNC(=N)N)NC1=O)C(=O)N[C@@H](Cc1ccc(O)cc1)C(=O)N[C@@H](CCCNC(=N)N)C(=O)N[C@@H](CCCNC(=N)N)C(=O)N[C@H](C(=O)N[C@@H](CC(N)=O)C(=O)O)CSSC[C@H](NC(=O)[C@H](Cc1ccccc1)NC(=O)CN)C(=O)N[C@@H](Cc1ccccc1)C(=O)N[C@@H](CCCNC(=N)N)C(=O)N[C@@H](CO)C(=O)N2` [compound 377] (H-GFCFRSCVRRNGVRVCYRRCN-OH; disulfide 3-20, 7-16 (inferred); N-terminus and C-terminus assumed) showed a fraction unbound of 0.35.
Molecule `CSCC[C@H](N)C(=O)N[C@@H](Cc1ccccc1)C(=O)N[C@H]1CSSC[C@@H](C(=O)N[C@@H](CC(N)=O)C(=O)O)NC(=O)[C@H](CCCNC(=N)N)NC(=O)[C@H](CCCNC(=N)N)NC(=O)[C@H](Cc2c[nH]cn2)NC(=O)[C@@H]2CSSC[C@H](NC(=O)[C@H](C(C)C)NC(=O)[C@H](CC(N)=O)NC(=O)[C@H](Cc3c[nH]c4ccccc34)NC1=O)C(=O)N[C@@H](C(C)C)C(=O)N[C@@H](Cc1ccc(O)cc1)C(=O)N[C@@H](CCCNC(=N)N)C(=O)N[C@@H](CC(N)=O)C(=O)NCC(=O)N[C@@H](C(C)C)C(=O)N[C@@H](CCCNC(=N)N)C(=O)N[C@@H](C(C)C)C(=O)N2` [compound 101] (H-MFCWNVCVYRNGVRVCHRRCN-OH; disulfide 3-20, 7-16 (inferred); N-terminus and C-terminus assumed) showed a fraction unbound of 0.19.
For the molecule `CC(C)C[C@@H]1NC(=O)CNC(=O)[C@H](CC(N)=O)NC(=O)[C@H](CCCNC(=N)N)NC(=O)[C@H](CCCCN)NC(=O)[C@H](CO)NC(=O)[C@@H]2CSSC[C@H](NC(=O)[C@H](C(C)C)NC(=O)[C@H](CCCNC(=N)N)NC1=O)C(=O)N[C@@H](Cc1ccc(O)cc1)C(=O)N[C@@H](CCCNC(=N)N)C(=O)N[C@@H](CCCNC(=N)N)C(=O)N[C@H](C(=O)N[C@@H](CC(N)=O)C(=O)O)CSSC[C@H](NC(=O)[C@H](Cc1ccccc1)NC(=O)CN)C(=O)N[C@@H](Cc1c[nH]c3ccccc13)C(=O)N[C@@H](Cc1c[nH]cn1)C(=O)N[C@@H](C(C)C)C(=O)N2` [compound 396] (H-GFCWHVCSKRNGLRVCYRRCN-OH; disulfide 3-20, 7-16 (inferred); N-terminus and C-terminus assumed), the unbound share (fraction unbound) is 0.08.

The term fraction unbound denotes free concentration divided by total concentration. Low values mean little free substance, high ones much free substance.
